Test results as given in patent publication US10582709B2, “Butyrolactones as herbicides” (FMC Corporation, priority 2015, dated 2020).

How the values were obtained:
Type in all cases: in vivo
[1] = system: pigweed (Amaranthus retroflexus); assay: Test A preemergence, pigweed; settings: visual rating after approx. 10 d, 0 to 100 scale, 0 no effect, 100 complete control
From the text: (§1) Seeds of plant species selected from barnyardgrass (Echinochloa crus-galli), crabgrass (large crabgrass, Digitaria sanguinalis), kochia (Kochia scoparia), ragweed (common ragweed, Ambrosia elatior), morningglory (Ipomoea spp.), velvetleaf (Abutilon theophrasti), ryegrass, Italian (Italian ryegrass, Lolium multiflorum), foxtail, giant (giant foxtail, Setaria faberii), wheat (Triticum aestivum), corn (Zea mays), and pigweed (Amaranthus retroflexus), were planted into a blend of loam soil and sand and treated preemergence with a directed soil spray using test chemicals formulated in a non-phytotoxic solvent mixture which included a surfactant. At the same time, plants selected from these crop and weed species and also blackgrass (Alopecurus myosuroides), and galium (catchweed bedstraw, Galium aparine), were planted in pots containing the same blend of loam soil and sand and treated with postemergence applications of test chemicals formulated in the same manner. Plants ranged in height from 2 to 10 cm and were in the one- to two-leaf stage for the postemergence treatment. Treated plants and untreated controls were maintained in a greenhouse for approximately 10 d, after which time all treated plants were compared to untreated controls and visually evaluated for injury. Plant response ratings, summarized in Table A, are based on a 0 to 100 scale where 0 is no effect and 100 is complete control. A dash (-) response means no test result.

[2] = system: ragweed (common ragweed, Ambrosia elatior); assay: Test A postemergence, ragweed; settings: visual rating after approx. 10 d, 0 to 100 scale, 0 no effect, 100 complete control
Method in brief: (§2)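 Visual injury ratings on a 0–100 scale (100 = complete control) made after about 10 d in the greenhouse, relative to untreated plants. Treatment was either a directed soil spray after sowing in loam–sand (preemergence) or foliar on one- to two-leaf plants 2–10 cm tall (postemergence), using surfactant-containing solvent formulations.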

kochia (Kochia scoparia) [3] = assay: Test A preemergence, kochia; settings: visual rating after approx. 10 d, 0 to 100 scale, 0 no effect, 100 complete control
From the text: as §1

[4] = system: sedge, umbrella (small-flower umbrella sedge, Cyperus difformis); assay: Test B flooded paddy test, umbrella sedge; settings: 500 g ai/ha; applied to paddy water at 2-leaf stage; 13 to 15 d; scale 0 no effect to 100 complete control
Method in brief: (§3)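 Ratings use a 0-100 visual scale, where 100 is complete control, and compare treated plants with controls after 13 to 15 d of greenhouse growth. Compound went straight into paddy water kept 3 cm over the soil surface, applied to seedlings at the 2-leaf stage.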

[5] = system: foxtail, giant (giant foxtail, Setaria faberii); assay: Test A postemergence, giant foxtail; settings: visual rating after approx. 10 d, 0 to 100 scale, 0 no effect, 100 complete control
Method in brief: as §2

[6] = system: ryegrass, Italian (Italian ryegrass, Lolium multiflorum); assay: Test A preemergence, Italian ryegrass; settings: visual rating after approx. 10 d, 0 to 100 scale, 0 no effect, 100 complete control
From the text: as §1

[7] = system: ryegrass, Italian (Italian ryegrass, Lolium multiflorum); assay: Test A postemergence, Italian ryegrass; settings: visual rating after approx. 10 d, 0 to 100 scale, 0 no effect, 100 complete control
Method in brief: as §2

[8] = system: wheat (Triticum aestivum); assay: Test A postemergence, wheat; settings: visual rating after approx. 10 d, 0 to 100 scale, 0 no effect, 100 complete control
Method in brief: as §2

corn (Zea mays) = assay: Test A postemergence, corn; settings: visual rating after approx. 10 d, 0 to 100 scale, 0 no effect, 100 complete control
Method in brief: as §2

[9] = system: galium (catchweed bedstraw, Galium aparine); assay: Test A postemergence, galium; settings: visual rating after approx. 10 d, 0 to 100 scale, 0 no effect, 100 complete control
Method in brief: as §2

kochia (Kochia scoparia) [10] = assay: Test A postemergence, kochia; settings: visual rating after approx. 10 d, 0 to 100 scale, 0 no effect, 100 complete control
Method in brief: as §2

[11] = system: ducksalad (Heteranthera limosa); assay: Test B flooded paddy test, ducksalad; settings: 500 g ai/ha; applied to paddy water at 2-leaf stage; 13 to 15 d; scale 0 no effect to 100 complete control
Method in brief: as §3

[12] = system: foxtail, giant (giant foxtail, Setaria faberii); assay: Test A preemergence, giant foxtail; settings: visual rating after approx. 10 d, 0 to 100 scale, 0 no effect, 100 complete control
From the text: as §1

[13] = system: barnyardgrass (Echinochloa crus-galli); assay: Test A preemergence, barnyardgrass; settings: visual rating after approx. 10 d, 0 to 100 scale, 0 no effect, 100 complete control
From the text: as §1

[14] = system: barnyardgrass (Echinochloa crus-galli); assay: Test A postemergence, barnyardgrass; settings: visual rating after approx. 10 d, 0 to 100 scale, 0 no effect, 100 complete control
Method in brief: as §2

[15] = system: barnyardgrass (Echinochloa crus-galli); assay: Test B flooded paddy test, barnyardgrass; settings: 500 g ai/ha; applied to paddy water at 2-leaf stage; 13 to 15 d; scale 0 no effect to 100 complete control
Method in brief: as §3

[16] = system: pigweed (Amaranthus retroflexus); assay: Test A postemergence, pigweed; settings: visual rating after approx. 10 d, 0 to 100 scale, 0 no effect, 100 complete control
Method in brief: as §2

[17] = system: blackgrass (Alopecurus myosuroides); assay: Test A postemergence, blackgrass; settings: visual rating after approx. 10 d, 0 to 100 scale, 0 no effect, 100 complete control
Method in brief: as §2

[18] = system: ragweed (common ragweed, Ambrosia elatior); assay: Test A preemergence, ragweed; settings: visual rating after approx. 10 d, 0 to 100 scale, 0 no effect, 100 complete control
From the text: as §1

rice (Oryza sativa) = assay: Test B flooded paddy test, rice; settings: 500 g ai/ha; applied to paddy water at 2-leaf stage; 13 to 15 d; scale 0 no effect to 100 complete control
Method in brief: as §3

| SMILES | Plant response rating, Pigweed ([1]; 125 g ai/ha) | Plant response rating, Pigweed ([1]; 500 g ai/ha) | Plant response rating, Ragweed ([2]; 125 g ai/ha) | Plant response rating, Ragweed ([2]; 500 g ai/ha) | Plant response rating, Kochia (kochia (Kochia scoparia) [3]; 125 g ai/ha) | Plant response rating, Kochia (kochia (Kochia scoparia) [3]; 500 g ai/ha) | Plant response rating, Flood, Sedge, Umbrella [4] | Plant response rating, Foxtail, Giant ([5]; 125 g ai/ha) | Plant response rating, Foxtail, Giant ([5]; 500 g ai/ha) | Plant response rating, Ryegrass, Italian ([6]; 125 g ai/ha) | Plant response rating, Ryegrass, Italian ([6]; 500 g ai/ha) | Plant response rating, Ryegrass, Italian ([7]; 125 g ai/ha) | Plant response rating, Ryegrass, Italian ([7]; 500 g ai/ha) | Plant response rating, Wheat ([8]; 125 g ai/ha) | Plant response rating, Wheat ([8]; 500 g ai/ha) | Plant response rating, Corn (corn (Zea mays); 125 g ai/ha) | Plant response rating, Corn (corn (Zea mays); 500 g ai/ha) | Plant response rating, Galium ([9]; 125 g ai/ha) | Plant response rating, Galium ([9]; 500 g ai/ha) | Plant response rating, Kochia (kochia (Kochia scoparia) [10]; 125 g ai/ha) | also measured |
| --- | --- | --- | --- | --- | --- | --- | --- | --- | --- | --- | --- | --- | --- | --- | --- | --- | --- | --- | --- | --- | --- |
| O=C(Nc1ccccc1F)C1C(=O)OCC1c1ccc(F)c(C(F)(F)F)c1 (racemic) [Compound 16] | 0 | 0 | 0 | 0 | 0 | 0 | 0 | 20 | 40 | 0 | 0 | 0 | 0 | 0 | 0 | 0 | 0 | 0 | 0 | 0 | Plant response rating, Kochia (kochia (Kochia scoparia) [10]; 500 g ai/ha): 0; Plant response rating, Flood, Ducksalad [11]: 0; Plant response rating, Foxtail, Giant ([12]; 125 g ai/ha): 50; Plant response rating, Foxtail, Giant ([12]; 500 g ai/ha): 80; Plant response rating, Barnyardgrass ([13]; 125 g ai/ha): 30; Plant response rating, Barnyardgrass ([13]; 500 g ai/ha): 60; Plant response rating, Barnyardgrass ([14]; 125 g ai/ha): 20; Plant response rating, Barnyardgrass ([14]; 500 g ai/ha): 50; Plant response rating, Flood, Barnyardgrass [15]: 0; Plant response rating, Pigweed ([16]; 125 g ai/ha): 0; Plant response rating, Pigweed ([16]; 500 g ai/ha): 0; Plant response rating, Blackgrass ([17]; 125 g ai/ha): 0; Plant response rating, Blackgrass ([17]; 500 g ai/ha): 0; Plant response rating, Ragweed ([18]; 125 g ai/ha): 0; Plant response rating, Ragweed ([18]; 500 g ai/ha): 0; Plant response rating, Flood, Rice (rice (Oryza sativa)): 0 |
| O=C(Nc1ccccc1C(F)(F)F)C1C(=O)OCC1c1ccc(F)c(C(F)(F)F)c1 (racemic) [Compound 17] | 0 | 0 | 0 | 0 | 0 | 0 | 0 | 0 | 20 | 0 | 0 | 0 | 0 | 0 | 0 | 0 | 0 | 0 | 0 | 0 | Plant response rating, Kochia (kochia (Kochia scoparia) [10]; 500 g ai/ha): 0; Plant response rating, Flood, Ducksalad [11]: 0; Plant response rating, Foxtail, Giant ([12]; 125 g ai/ha): 20; Plant response rating, Foxtail, Giant ([12]; 500 g ai/ha): 60; Plant response rating, Barnyardgrass ([13]; 125 g ai/ha): 0; Plant response rating, Barnyardgrass ([13]; 500 g ai/ha): 0; Plant response rating, Barnyardgrass ([14]; 125 g ai/ha): 0; Plant response rating, Barnyardgrass ([14]; 500 g ai/ha): 0; Plant response rating, Flood, Barnyardgrass [15]: 0; Plant response rating, Pigweed ([16]; 125 g ai/ha): 0; Plant response rating, Pigweed ([16]; 500 g ai/ha): 0; Plant response rating, Blackgrass ([17]; 125 g ai/ha): 0; Plant response rating, Blackgrass ([17]; 500 g ai/ha): 0; Plant response rating, Ragweed ([18]; 125 g ai/ha): 0; Plant response rating, Ragweed ([18]; 500 g ai/ha): 0; Plant response rating, Flood, Rice (rice (Oryza sativa)): 0 |
| O=C(Nc1cccc(F)c1C(F)(F)F)C1C(=O)OCC1c1ccc(F)c(C(F)(F)F)c1 (racemic) [Compound 18] | 0 | 0 | 0 | 0 | 0 | 0 | 0 | 0 | 30 | 0 | 0 | 0 | 0 | 0 | 0 | 0 | 0 | 0 | 0 | 0 | Plant response rating, Kochia (kochia (Kochia scoparia) [10]; 500 g ai/ha): 0; Plant response rating, Flood, Ducksalad [11]: 0; Plant response rating, Foxtail, Giant ([12]; 125 g ai/ha): 0; Plant response rating, Foxtail, Giant ([12]; 500 g ai/ha): 40; Plant response rating, Barnyardgrass ([13]; 125 g ai/ha): 0; Plant response rating, Barnyardgrass ([13]; 500 g ai/ha): 0; Plant response rating, Barnyardgrass ([14]; 125 g ai/ha): 0; Plant response rating, Barnyardgrass ([14]; 500 g ai/ha): 0; Plant response rating, Flood, Barnyardgrass [15]: 0; Plant response rating, Pigweed ([16]; 125 g ai/ha): 0; Plant response rating, Pigweed ([16]; 500 g ai/ha): 0; Plant response rating, Blackgrass ([17]; 125 g ai/ha): 0; Plant response rating, Blackgrass ([17]; 500 g ai/ha): 0; Plant response rating, Ragweed ([18]; 125 g ai/ha): 0; Plant response rating, Ragweed ([18]; 500 g ai/ha): 0; Plant response rating, Flood, Rice (rice (Oryza sativa)): 0 |
